Experimental findings from patent publication US9908872B2, “Methods to treat lymphoplasmacytic lymphoma” (Dana-Farber Cancer Institute, Inc., priority 2013, dated 2018) are described below.

For one assay, the system named is OCI-Ly3. Kind of assay: CellTiter-Glo cell viability assay. Format: cell-based. Conditions: Homo sapiens, 72 hours, cell survival. As to the method:
(§1) CellTiter-Glo® Luminescent cell viability assay (Promega) was used to assess cell survival following treatment with the compounds described. Cells were seeded into 384 well plates with the EL406 Combination Washer Dispenser (BioTek Instruments, Inc.), and the compounds were injected into the cells culture media with the JANUS Automated Workstation (PerkinElmer Inc.). Cells were treated with a series diluted inhibitors (20˜0.04 μM) for 72 hours at 37° C. Luminescent measurement is performed using the 2104 Envision® Multilabel Reader (PerkinElmer Inc.).
On the technique in general: Cellular ATP, detected with luciferase, serves as a proxy for viable cell number.

Another assay has as its system RPCIWM-1. Description: CellTiter-Glo cell viability assay. As to conditions: 72 hours, cell survival. The assay is classed as cell-based. On the procedure:
as §1

The test system of another assay is MWCL-1. Description: CellTiter-Glo cell viability assay. Format: cell-based. Conditions: 72 hours, cell survival. As to the method:
as §1

A further assay relates to Ramos. Description: CellTiter-Glo cell viability assay. Format: cell-based. As to conditions: 72 hours, cell survival. As to the method: as §1
The next assay concerns BCWM.1. Description: CellTiter-Glo cell viability assay. As to conditions: 72 hours, cell survival. The assay is classed as cell-based. On the procedure:
as §1

Another assay has as its system PKD1, PKD2. Description: KiNativ profiling, A375 cells. Format: binding, Homo sapiens. As to conditions: 1 μM, labeling site Lys2.
Another assay deals with JNK1, JNK2, JNK3. Kind of assay: KiNativ profiling, A375 cells. The assay is classed as binding, Homo sapiens. As to conditions: 1 μM, labeling site Lys2.
The subject of the next assay is TAO1, TAO3. Kind of assay: KiNativ profiling, A375 cells. Format: binding, Homo sapiens. Conditions: 1 μM, labeling site Lys2.
In assay [1] the test system is ZC1/HGK, ZC2/TNIK, ZC3/MINK. Description: KiNativ profiling, A375 cells. The assay is classed as binding, Homo sapiens. As to conditions: 1 μM, labeling site Lys2.
The subject of another assay is MARK2, MARK3. Description: KiNativ profiling, A375 cells. The assay is classed as binding, Homo sapiens. As to conditions: 1 μM, labeling site Lys2.
A further assay deals with ABL, ARG. Kind of assay: KiNativ profiling, A375 cells. The assay is classed as binding, Homo sapiens. Conditions: 1 μM, labeling site Activation Loop.
Another assay has as its system MAP3K2, MAP3K3. Description: KiNativ profiling, A375 cells. The assay is classed as binding, Homo sapiens. Conditions: 1 μM, labeling site Lys2.
In a further assay the test system is p38d, p38g. Kind of assay: KiNativ profiling, A375 cells. As to conditions: 1 μM, labeling site Lys2. Format: binding, Homo sapiens.
A further assay concerns MAP2K1, MAP2K2. Description: KiNativ profiling, A375 cells. Conditions: 1 μM, labeling site Lys2. The assay is classed as binding, Homo sapiens.
The next assay relates to PITSLRE. Kind of assay: KiNativ profiling, A375 cells. Conditions: 1 μM, labeling site Lys2. The assay is classed as binding, Homo sapiens.
For another assay, the system named is AMPKa1, AMPKa2. Description: KiNativ profiling, A375 cells. Format: binding, Homo sapiens. Conditions: 1 μM, labeling site Lys1.
Another assay deals with IKKe, TBK1. Description: KiNativ profiling, A375 cells. Format: binding, Homo sapiens. As to conditions: 1 μM, labeling site Lys2.
Another assay relates to MST4, YSK1. Kind of assay: KiNativ profiling, A375 cells. Conditions: 1 μM, labeling site Lys2. The assay is classed as binding, Homo sapiens.
Another assay relates to MARK1, MARK2. Kind of assay: KiNativ profiling, A375 cells. Format: binding, Homo sapiens. As to conditions: 1 μM, labeling site Lys1.
Another assay relates to NEK6, NEK7. Kind of assay: KiNativ profiling, A375 cells. The assay is classed as binding, Homo sapiens. Conditions: 1 μM, labeling site Lys2.
A further assay concerns ROCK1, ROCK2. Kind of assay: KiNativ profiling, A375 cells. Format: binding, Homo sapiens. Conditions: 1 μM, labeling site Lys2.
In another assay the test system is FYN, SRC, YES. Description: KiNativ profiling, A375 cells. Format: binding, Homo sapiens. As to conditions: 1 μM, labeling site Activation Loop.
The subject of a further assay is CDK11, CDK8. Kind of assay: KiNativ profiling, A375 cells. Conditions: 1 μM, labeling site Lys2. Format: binding, Homo sapiens.
For assay [2], the system named is CaMK2a, CaMK2b, CaMK2d, CaMK2g. Kind of assay: KiNativ profiling, A375 cells. Format: binding, Homo sapiens. As to conditions: 1 μM, labeling site Lys2.
For the next assay, the system named is ZAK. The assay is classed as binding, Homo sapiens.
The test system of the next assay is LYN. Format: binding, Homo sapiens.
For a further assay, the system named is OCI-Ly19. Description: CellTiter-Glo cell viability assay. The assay is classed as cell-based. As to conditions: 72 hours, cell survival. As to the method: as §1

In general, EC50 refers to the concentration that produces a half-maximal response.

Molecules are shown by their SMILES. Where “and” joins values, the source holds several entries; their conditions need not be identical. Equal values may be shown once.

In the case of `CCN1CCN(Cc2ccc(NC(=O)c3ccc(Cl)c(NC(=O)c4cncc(-c5cccs5)c4)c3)cc2C(F)(F)F)CC1` [I-2, N-(2-chloro-5-((4-((4-ethylpiperazin-1-yl)methyl)-3-(trifluoromethyl)phenyl)carbamoyl)phenyl)-5-(thiophen-2-yl)nicotinamide], the EC50 was 161 nM with OCI-Ly3; 110 nM with RPCIWM-1; 16 nM in the assay with MWCL-1; 60 nM in the assay with Ramos (Homo sapiens, Ramos); 12 nM with BCWM.1 (BCWM1).
`Cc1ccc(C(=O)Nc2cccc(C(C)(C)C#N)c2)cc1NC(=O)c1cncc(-c2cccs2)c1` [I-6, N-(5-((3-(2-cyanopropan-2-yl)phenyl)carbamoyl)-2-methylphenyl)-5-(thiophen-2-yl)nicotinamide]: in the assay with PKD1, PKD2, the “KiNativ inhibition of PKD1, PKD2” value is on record as -2.5%. The “KiNativ inhibition of JNK1, JNK2, JNK3” value with JNK1, JNK2, JNK3 worked out at 11.7%. Besides, in the assay with TAO1, TAO3, the “KiNativ inhibition of TAO1, TAO3” value was found to be 11.9%. Also, in [1], the “KiNativ inhibition of ZC1/HGK, ZC2/TNIK, ZC3/MINK” value is on record as 27%. Besides, the “KiNativ inhibition of MARK2, MARK3” value in the assay on MARK2, MARK3 is listed as 17.2%. For the same compound, in the assay on ABL, ARG, the “KiNativ inhibition of ABL, ARG” value was >90%. For the same compound, the “KiNativ inhibition of MAP3K2, MAP3K3” value with MAP3K2, MAP3K3 is recorded as -15.3%. For the same compound, the “KiNativ inhibition of p38d, p38g” value in the assay with p38d, p38g was found to be 17.8%. Further, the “KiNativ inhibition of MAP2K1, MAP2K2” value in the assay on MAP2K1, MAP2K2 is 4.1%. Also, the “KiNativ inhibition of PITSLRE” value with PITSLRE is 1.9%. In addition, in the assay on AMPKa1, AMPKa2, the “KiNativ inhibition of AMPKa1, AMPKa2” value came out at 15.3%. The “KiNativ inhibition of IKKe, TBK1” value in the assay with IKKe, TBK1 came to 24.8%. The “KiNativ inhibition of MST4, YSK1” value in the assay on MST4, YSK1 is listed as 22%. The “KiNativ inhibition of MARK1, MARK2” value in the assay with MARK1, MARK2 is -4.9%. Further, the “KiNativ inhibition of NEK6, NEK7” value in the assay on NEK6, NEK7 was -3.7%. Besides, in the assay on ROCK1, ROCK2, the “KiNativ inhibition of ROCK1, ROCK2” value came to 12.7%. In addition, the “KiNativ inhibition of FYN, SRC, YES” value with FYN, SRC, YES stood at 55.7%. For the same compound, in the assay on CDK11, CDK8, the “KiNativ inhibition of CDK11, CDK8” value came out at 20.7%. In [2], the “KiNativ inhibition of CaMK2a, CaMK2b, CaMK2d, CaMK2g” value is recorded as 0.7%. Further, in the assay on ZAK, the “KiNativ inhibition of ZAK” value was >95%. Further, the “KiNativ inhibition of LYN” value with LYN is 87.6%.
`CCN1CCN(Cc2ccc(NC(=O)c3ccc(C)c(NC(=O)c4cncc(-c5cnoc5)c4)c3)cc2C(F)(F)F)CC1` [I-8]: the results for the EC50 with OCI-Ly19 and with Ramos were 56 nM and 329 nM, respectively.
On to `CCN1CCN(Cc2ccc(NC(=O)c3ccc(C)c(NC(=O)c4cncc(-c5cnn(C)c5)c4)c3)cc2C(F)(F)F)CC1` [I-9], for which the EC50 is 2650 nM with OCI-Ly19; 294 nM and 281 nM with MWCL-1; 7470 nM in the assay on Ramos; 542 nM and 305 nM in the assay with BCWM.1.
